{"source": "ChEMBL document CHEMBL3044672", "about": "“N9- and N7-(Chloromethyl Phenymethyl)Chloropurine Derivatives from , '-Dichloroxylenes: Synthesis and Anticancer Activity” (2005)", "type_in_all_cases": "functional", "key": {"HOP-92": {"test_system": "HOP-92", "experiment": "Cytotoxicity against Homo sapiens (human) HOP92 cells after 48 hr by sulforhodamine B assay", "details": "HOP-92, 48 h"}, "NCI-H226": {"test_system": "NCI-H226", "experiment": "Cytotoxicity against Homo sapiens (human) NCI-H226 cells after 48 hr by sulforhodamine B assay", "details": "NCI-H226, 48 h"}, "UACC-62": {"test_system": "UACC-62", "experiment": "Cytotoxicity against Homo sapiens (human) UACC62 cells after 48 hr by sulforhodamine B assay", "details": "UACC-62, 48 h"}, "A498": {"test_system": "A498", "experiment": "Cytotoxicity against Homo sapiens (human) A498 cells after 48 hr by sulforhodamine B assay", "details": "A498, 48 h"}, "786-0": {"test_system": "786-0", "experiment": "Cytotoxicity against Homo sapiens (human) 786-0 cells after 48 hr by sulforhodamine B assay", "details": "786-0, 48 h"}, "Hs-578T": {"test_system": "Hs-578T", "experiment": "Cytotoxicity against Homo sapiens (human) Hs 578T cells after 48 hr by sulforhodamine B assay"}, "TK-10": {"test_system": "TK-10", "experiment": "Cytotoxicity against Homo sapiens (human) TK10 cells after 48 hr by sulforhodamine B assay", "details": "TK-10, 48 h"}, "NCI-H460": {"test_system": "NCI-H460", "experiment": "Cytotoxicity against Homo sapiens (human) NCI-H460 cells assessed as cell growth at 10^-4 M after 48 hr by Alamar blue assay", "details": "NCI-H460, 48 h, read-out: Activity"}, "K562": {"test_system": "K562", "experiment": "Cytotoxicity against Homo sapiens (human) K562 cells after 48 hr by sulforhodamine B assay", "details": "K562, 48 h"}, "MDA-MB-435": {"test_system": "MDA-MB-435", "experiment": "Cytotoxicity against Homo sapiens (human) MDA-MB-435 cells after 48 hr by sulforhodamine B assay", "details": "MDA-MB-435, 48 h"}, "SF-268": {"test_system": "SF-268", "experiment": "Cytotoxicity against Homo sapiens (human) SF268 cells assessed as cell growth at 10^-4 M after 48 hr by […] assay", "details": "SF-268, 48 h, read-out: Activity"}, "KM12": {"test_system": "KM12", "experiment": "Cytotoxicity against Homo sapiens (human) KM12 cells after 48 hr by sulforhodamine B assay", "details": "KM12, 48 h"}, "OVCAR-4": {"test_system": "OVCAR-4", "experiment": "Cytotoxicity against Homo sapiens (human) OVCAR4 cells after 48 hr by sulforhodamine B assay", "details": "OVCAR-4, 48 h"}, "SW-620": {"test_system": "SW-620", "experiment": "Cytotoxicity against Homo sapiens (human) SW620 cells after 48 hr by sulforhodamine B assay", "details": "SW-620, 48 h"}, "RPMI-8226": {"test_system": "RPMI-8226", "experiment": "Cytotoxicity against Homo sapiens (human) RPMI8226 cells after 48 hr by sulforhodamine B assay", "details": "RPMI-8226, 48 h"}, "SNB-75": {"test_system": "SNB-75", "experiment": "Cytotoxicity against Homo sapiens (human) SNB75 cells after 48 hr by sulforhodamine B assay", "details": "SNB-75, 48 h"}, "ACHN": {"test_system": "ACHN", "experiment": "Cytotoxicity against Homo sapiens (human) ACHN cells after 48 hr by sulforhodamine B assay"}, "UACC-257": {"test_system": "UACC-257", "experiment": "Cytotoxicity against Homo sapiens (human) UACC257 cells after 48 hr by sulforhodamine B assay", "details": "UACC-257, 48 h"}, "COLO 205": {"test_system": "COLO 205", "experiment": "Cytotoxicity against Homo sapiens (human) COLO205 cells after 48 hr by sulforhodamine B assay", "details": "COLO 205, 48 h"}, "HCT-15": {"test_system": "HCT-15", "experiment": "Cytotoxicity against Homo sapiens (human) HCT15 cells after 48 hr by sulforhodamine B assay", "details": "HCT-15, 48 h"}, "NCI-H522": {"test_system": "NCI-H522", "experiment": "Cytotoxicity against Homo sapiens (human) NCI-H522 cells after 48 hr by sulforhodamine B assay", "details": "NCI-H522, 48 h"}, "SN12C": {"test_system": "SN12C", "experiment": "Cytotoxicity against Homo sapiens (human) SN12C cells after 48 hr by sulforhodamine B assay"}, "HCT-116": {"test_system": "HCT-116", "experiment": "Cytotoxicity against Homo sapiens (human) HCT116 cells after 48 hr by sulforhodamine B assay", "details": "HCT-116, 48 h"}, "A549": {"test_system": "A549", "experiment": "Cytotoxicity against Homo sapiens (human) A549 cells after 48 hr by sulforhodamine B assay", "details": "A549, 48 h"}, "MDA-MB-231": {"test_system": "MDA-MB-231", "experiment": "Cytotoxicity against Homo sapiens (human) MDA-MB-231 cells after 48 hr by sulforhodamine B assay", "details": "MDA-MB-231, 48 h"}, "SF-539": {"test_system": "SF-539", "experiment": "Cytotoxicity against Homo sapiens (human) SF539 cells after 48 hr by sulforhodamine B assay", "details": "SF-539, 48 h"}, "[1]": {"details": "read-out: LC50 (the source's name)"}}, "data": [{"smiles": "ClCc1ccccc1Cn1cnc2nc(Cl)nc(Cl)c21", "values": [{"measurement": "GI50", "setting": "HOP-92", "result": 1.14, "unit": "µM"}, {"measurement": "TGI", "setting": "HOP-92", "result": 2.81, "unit": "µM"}, {"measurement": "CC50", "setting": "HOP-92; [1]", "result": "> 100", "unit": "µM"}, {"measurement": "GI50", "setting": "NCI-H226", "result": 2.13, "unit": "µM"}, {"measurement": "TGI", "setting": "NCI-H226", "result": 6.76, "unit": "µM"}, {"measurement": "CC50", "setting": "NCI-H226; [1]", "result": 28.2, "unit": "µM"}, {"measurement": "GI50", "setting": "UACC-62", "result": 1.2, "unit": "µM"}, {"measurement": "LC50 (concentration causing 50% net cell kill)", "setting": "UACC-62", "result": 6.76, "unit": "µM"}, {"measurement": "TGI", "setting": "UACC-62", "result": 2.81, "unit": "µM"}, {"measurement": "GI50", "setting": "A498", "result": 2.51, "unit": "µM"}, {"measurement": "LC50 (lethal concentration, 50% cell kill)", "setting": "A498", "result": 19.5, "unit": "µM"}, {"measurement": "TGI", "setting": "A498", "result": 5.88, "unit": "µM"}, {"measurement": "GI50", "setting": "786-0", "result": 2.63, "unit": "µM"}, {"measurement": "LC50", "setting": "786-0", "result": 30.9, "unit": "µM"}, {"measurement": "TGI", "setting": "786-0", "result": 7.07, "unit": "µM"}, {"measurement": "GI50", "setting": "Hs-578T", "result": 0.67, "unit": "µM"}, {"measurement": "LC50", "setting": "Hs-578T", "result": "> 100", "unit": "µM"}, {"measurement": "TGI", "setting": "Hs-578T", "result": 2.57, "unit": "µM"}, {"measurement": "GI50", "setting": "TK-10", "result": 19.5, "unit": "µM"}, {"measurement": "TGI", "setting": "TK-10", "result": 33.9, "unit": "µM"}, {"measurement": "CC50", "setting": "TK-10; [1]", "result": 60.2, "unit": "µM"}, {"measurement": "growth at 100 µM", "setting": "NCI-H460", "result": 0, "unit": "%"}, {"measurement": "GI50", "setting": "K562", "result": 0.25, "unit": "µM"}, {"measurement": "TGI", "setting": "K562", "result": 0.69, "unit": "µM"}, {"measurement": "CC50", "setting": "K562; [1]", "result": "> 100", "unit": "µM"}, {"measurement": "GI50", "setting": "MDA-MB-435", "result": 16.6, "unit": "µM"}, {"measurement": "LC50", "setting": "MDA-MB-435", "result": 58.9, "unit": "µM"}, {"measurement": "TGI", "setting": "MDA-MB-435", "result": 30.9, "unit": "µM"}, {"measurement": "growth at 100 µM", "setting": "SF-268", "result": 0, "unit": "%"}, {"measurement": "GI50", "setting": "KM12", "result": 11.7, "unit": "µM"}, {"measurement": "TGI", "setting": "KM12", "result": 25.7, "unit": "µM"}, {"measurement": "CC50", "setting": "KM12; [1]", "result": 56.2, "unit": "µM"}, {"measurement": "GI50", "setting": "OVCAR-4", "result": 2.13, "unit": "µM"}, {"measurement": "LC50 (concentration killing 50% of cells)", "setting": "OVCAR-4", "result": "> 100", "unit": "µM"}, {"measurement": "TGI", "setting": "OVCAR-4", "result": 5.12, "unit": "µM"}, {"measurement": "GI50", "setting": "SW-620", "result": 0.26, "unit": "µM"}, {"measurement": "TGI", "setting": "SW-620", "result": 0.67, "unit": "µM"}, {"measurement": "CC50", "setting": "SW-620; [1]", "result": 4.67, "unit": "µM"}, {"measurement": "GI50", "setting": "RPMI-8226", "result": 0.21, "unit": "µM"}, {"measurement": "TGI", "setting": "RPMI-8226", "result": 0.63, "unit": "µM"}, {"measurement": "GI50", "setting": "SNB-75", "result": 1.9, "unit": "µM"}, {"measurement": "TGI", "setting": "SNB-75", "result": 4.46, "unit": "µM"}, {"measurement": "CC50", "setting": "SNB-75; [1]", "result": "> 100", "unit": "µM"}, {"measurement": "GI50", "setting": "ACHN", "result": 0.35, "unit": "µM"}, {"measurement": "TGI", "setting": "ACHN", "result": 1.25, "unit": "µM"}, {"measurement": "CC50", "setting": "ACHN; [1]", "result": 3.54, "unit": "µM"}, {"measurement": "GI50", "setting": "UACC-257", "result": 1.99, "unit": "µM"}, {"measurement": "LC50 (concentration killing 50% of cells)", "setting": "UACC-257", "result": 8.7, "unit": "µM"}, {"measurement": "TGI", "setting": "UACC-257", "result": 4.16, "unit": "µM"}, {"measurement": "GI50", "setting": "COLO 205", "result": 0.35, "unit": "µM"}, {"measurement": "TGI", "setting": "COLO 205", "result": "> 100", "unit": "µM"}, {"measurement": "CC50", "setting": "COLO 205; [1]", "result": "> 100", "unit": "µM"}, {"measurement": "GI50", "setting": "HCT-15", "result": 0.19, "unit": "µM"}, {"measurement": "TGI", "setting": "HCT-15", "result": 0.43, "unit": "µM"}, {"measurement": "CC50", "setting": "HCT-15; [1]", "result": 0.95, "unit": "µM"}, {"measurement": "GI50", "setting": "NCI-H522", "result": 2.95, "unit": "µM"}, {"measurement": "TGI", "setting": "NCI-H522", "result": 7.24, "unit": "µM"}, {"measurement": "CC50", "setting": "NCI-H522; [1]", "result": "> 100", "unit": "µM"}, {"measurement": "GI50", "setting": "SN12C", "result": 1.17, "unit": "µM"}, {"measurement": "LC50 (50% lethal concentration)", "setting": "SN12C", "result": 5.62, "unit": "µM"}, {"measurement": "TGI", "setting": "SN12C", "result": 2.57, "unit": "µM"}, {"measurement": "GI50", "setting": "HCT-116", "result": 1.86, "unit": "µM"}, {"measurement": "TGI", "setting": "HCT-116", "result": 4.07, "unit": "µM"}, {"measurement": "GI50", "setting": "A549", "result": 2.81, "unit": "µM"}, {"measurement": "TGI", "setting": "A549", "result": 5.75, "unit": "µM"}, {"measurement": "CC50", "setting": "A549; [1]", "result": "> 100", "unit": "µM"}, {"measurement": "GI50", "setting": "MDA-MB-231", "result": 0.3, "unit": "µM"}, {"measurement": "LC50", "setting": "MDA-MB-231", "result": 3.23, "unit": "µM"}, {"measurement": "TGI", "setting": "MDA-MB-231", "result": 0.91, "unit": "µM"}, {"measurement": "GI50", "setting": "SF-539", "result": 2.13, "unit": "µM"}, {"measurement": "LC50 (concentration killing 50% of cells)", "setting": "SF-539", "result": 8.31, "unit": "µM"}, {"measurement": "TGI", "setting": "SF-539", "result": 4.26, "unit": "µM"}]}]}
